# According to patent US8129371B2, “Thienopyrimidine and pyrazolopyrimidine compounds and their use as mTOR kinase and PI3 kinase inhibitors” (Wyeth LLC, priority 2007, dated 2012):
# Where two headings read alike, the source gives them in different places.
# Key:
# PI3K [1] = biological target: T1, PI3K (Homo sapiens, UniProt P42336); assay: Fluorescence polarization assay for PI3K; format: biochemical; settings: read-out: PI3 Kinase α IC50
# T1 construct: PI3 Kinase α IC50; other: PI3 Kinase α; other: PI3 Kinase α isoform, fluorescence polarization
# Summary of the method: (§1)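 PI3K was preincubated with compound (final DMSO 1%), and the reaction was started with PIP2/ATP substrate and run 30–60 min. It was stopped with a detector mix giving 10 nM red probe and 70 nM GST-GRP.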
# PI3K [2] = biological target: T2, PI3K (Homo sapiens, UniProt P48736); assay: Fluorescence polarization assay for PI3K; format: biochemical; settings: read-out: PI3 Kinase γ IC50
# T2 construct: PI3 Kinase γ IC50; other: PI3 Kinase γ; other: PI3 Kinase γ isoform, fluorescence polarization
# Summary of the method: as §1
# breast line MDA468 = assay: In vitro cell culture growth assay (MTS), MDA468; format: cell-based; settings: Homo sapiens, 72 h, MDA468 cells, three days after drug treatment
# Summary of the method: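 Viable cell density is assessed three days after inhibitor addition via MTS conversion, normalised to vehicle-treated cells.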
# prostate line LNCap = assay: In vitro cell culture growth assay (MTS), LNCap; format: cell-based; settings: Homo sapiens, LNCaP, 72 h, LNCap cells, three days after drug treatment
# Description: Human tumor cell lines used include prostate lines LNCap and PC3MM2, breast lines MDA468, MCF7, renal line HTB44 (A498), colon line HCT116, and ovarian line OVCAR3. Cells were plated in 96-well culture plates. One day following plating, the inhibitors were added to cells. Three days after drug treatment, viable cell densities were determined by metabolic conversion (by viable cells) of the dye MTS, a well-established cell proliferation assay. The assays were performed using an assay kit purchased from Promega Corp. (Madison, Wis.) following the protocol supplied with the kit. The MTS assay results were read in a 96-well plate reader by measuring absorbance at 490 nm. The effect of each treatment was calculated as percent of control growth relative to the vehicle-treated cells grown in the same culture plate.
# Human mTOR (FLAG-TOR) = biological target: T3, Human mTOR (FLAG-TOR) (Homo sapiens, UniProt P42345); assay: Human mTOR kinase assay with purified enzyme, DELFIA format; format: biochemical
# T3 construct: FLAG
# Summary of the method: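 Purified FLAG-mTOR in HEPES pH 7.4 buffer with 10 mM MnCl2 was preincubated with inhibitor and reacted 2 h at room temperature with His6-S6K substrate, then stopped with EDTA/EGTA. Phospho-T389 S6K detected by DELFIA with Eu-labelled antibody (40 ng/mL) after plate capture; inhibition computed from signal.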
# [3] = PI3 Kinase α isoform, fluorescence polarization
# [4] = PI3 Kinase γ isoform, fluorescence polarization
# [5] = purified human mTOR enzyme, DELFIA format
# T1 sequence (P42336 whole entry, canonical isoform): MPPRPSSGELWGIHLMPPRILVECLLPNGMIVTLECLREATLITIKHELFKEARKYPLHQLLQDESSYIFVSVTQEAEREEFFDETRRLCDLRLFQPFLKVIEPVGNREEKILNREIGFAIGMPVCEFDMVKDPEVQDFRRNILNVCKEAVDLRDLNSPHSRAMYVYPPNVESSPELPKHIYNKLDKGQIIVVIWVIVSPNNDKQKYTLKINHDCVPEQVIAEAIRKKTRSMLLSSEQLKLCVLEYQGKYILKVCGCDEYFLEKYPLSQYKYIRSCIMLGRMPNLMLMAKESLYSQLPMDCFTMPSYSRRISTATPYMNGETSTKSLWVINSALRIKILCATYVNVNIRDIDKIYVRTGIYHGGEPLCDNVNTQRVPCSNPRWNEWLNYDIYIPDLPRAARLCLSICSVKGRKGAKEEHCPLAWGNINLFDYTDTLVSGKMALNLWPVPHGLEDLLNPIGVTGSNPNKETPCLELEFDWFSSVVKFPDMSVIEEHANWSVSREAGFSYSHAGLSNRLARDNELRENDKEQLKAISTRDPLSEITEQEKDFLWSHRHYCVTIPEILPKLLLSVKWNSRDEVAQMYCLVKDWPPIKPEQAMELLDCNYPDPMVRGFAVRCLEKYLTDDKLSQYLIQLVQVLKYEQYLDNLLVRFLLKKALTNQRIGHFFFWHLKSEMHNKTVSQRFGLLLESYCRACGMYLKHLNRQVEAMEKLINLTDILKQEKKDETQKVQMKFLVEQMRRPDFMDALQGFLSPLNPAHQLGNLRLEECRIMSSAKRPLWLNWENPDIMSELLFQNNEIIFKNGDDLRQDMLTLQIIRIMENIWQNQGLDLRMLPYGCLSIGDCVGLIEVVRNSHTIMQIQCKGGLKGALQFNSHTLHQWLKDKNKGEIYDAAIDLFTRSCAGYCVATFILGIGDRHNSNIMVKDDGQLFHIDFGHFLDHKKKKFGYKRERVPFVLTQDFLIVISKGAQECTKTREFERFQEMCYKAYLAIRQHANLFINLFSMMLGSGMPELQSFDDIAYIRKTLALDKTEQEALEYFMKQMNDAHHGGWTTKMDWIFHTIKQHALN
# T2 sequence (P48736 whole entry, canonical isoform): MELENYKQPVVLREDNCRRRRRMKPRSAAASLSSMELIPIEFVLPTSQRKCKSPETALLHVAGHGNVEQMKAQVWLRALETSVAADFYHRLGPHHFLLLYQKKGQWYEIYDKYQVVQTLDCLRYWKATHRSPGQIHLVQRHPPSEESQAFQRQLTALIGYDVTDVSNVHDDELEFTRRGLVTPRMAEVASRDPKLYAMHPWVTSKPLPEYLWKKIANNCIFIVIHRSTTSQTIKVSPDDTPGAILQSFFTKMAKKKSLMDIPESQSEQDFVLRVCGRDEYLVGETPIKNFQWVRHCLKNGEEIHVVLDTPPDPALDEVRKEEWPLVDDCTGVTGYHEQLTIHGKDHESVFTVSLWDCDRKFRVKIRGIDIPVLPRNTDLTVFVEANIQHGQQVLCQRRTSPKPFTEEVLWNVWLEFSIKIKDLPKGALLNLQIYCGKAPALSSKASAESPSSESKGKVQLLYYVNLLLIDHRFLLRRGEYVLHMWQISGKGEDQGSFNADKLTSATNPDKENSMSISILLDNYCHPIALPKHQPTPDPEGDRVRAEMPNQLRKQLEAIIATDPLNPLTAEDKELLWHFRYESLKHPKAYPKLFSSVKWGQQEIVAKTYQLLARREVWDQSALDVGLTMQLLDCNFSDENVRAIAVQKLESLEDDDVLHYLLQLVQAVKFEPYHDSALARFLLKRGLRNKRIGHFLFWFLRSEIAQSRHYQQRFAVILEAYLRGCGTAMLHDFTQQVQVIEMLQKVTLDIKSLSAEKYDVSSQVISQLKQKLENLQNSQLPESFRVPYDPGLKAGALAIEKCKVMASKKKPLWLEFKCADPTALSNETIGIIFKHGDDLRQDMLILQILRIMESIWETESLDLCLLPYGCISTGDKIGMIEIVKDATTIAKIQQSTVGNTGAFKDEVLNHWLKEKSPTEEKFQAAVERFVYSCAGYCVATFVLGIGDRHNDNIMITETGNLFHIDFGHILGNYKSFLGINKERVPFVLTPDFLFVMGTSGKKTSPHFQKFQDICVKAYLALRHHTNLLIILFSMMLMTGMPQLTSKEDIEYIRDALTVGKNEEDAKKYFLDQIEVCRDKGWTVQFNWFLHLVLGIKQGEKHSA
SMILES,IC50 (PI3K [1]; [3]) [nM],IC50 (PI3K [2]; [4]) [nM],IC50 (breast line MDA468) [nM],IC50 (prostate line LNCap) [nM],IC50 (Human mTOR (FLAG-TOR); [5]) [nM],IC50 (PI3K [1]; PI3 Kinase α) [nM],IC50 (PI3K [2]; PI3 Kinase γ) [nM],IC50 (Human mTOR (FLAG-TOR)) [nM]
"O=C(Nc1ccc(-c2nc(N3C[C@H]4C[C@@H]3CO4)c3cnn(CC(F)(F)F)c3n2)cc1)NC1CC1 [Example 342, 1-cyclopropyl-3-(4-{4-[(1R,4R)-2-oxa-5-azabicyclo[2.2.1]hept-5-yl]-1-(2,2,2-trifluoroethyl)-1H-pyrazolo[3,4-d]pyrimidin-6-yl}phenyl)urea]",9500,> 10000,1000,670,53,–,–,–
"CCn1ncc2c(N3CC4CCC(C3)O4)nc(-c3ccc(NC(=O)Nc4ccc(N5CCN(C)CC5)cc4)cc3)nc21 [Example 180, 1-{4-[1-ethyl-4-(8-oxa-3-azabicyclo[3.2.1]oct-3-yl)-1H-pyrazolo[3,4-d]pyrimidin-6-yl]phenyl}-3-[4-(4-methylpiperazin-1-yl)phenyl]urea]",–,–,< 1,< 1,–,56,1340,0.275
"O=C(NCCF)Nc1ccc(-c2nc(N3CC4CCC(C3)O4)c3cnn(C4CCN(Cc5cccnc5)CC4)c3n2)cc1 [Example 16, 1-(2-fluoroethyl)-3-(4-{4-(8-oxa-3-azabicyclo[3.2.1]oct-3-yl)-1-[1-(pyridin-3-ylmethyl)piperidin-4-yl]-1H-pyrazolo[3,4-d]pyrimidin-6-yl}phenyl)urea]",–,–,80,6,–,2630,> 10000,0.5
"CCNC(=O)Nc1ccc(-c2nc(N3CC4CCC(C3)O4)c3cnn(CCN(C)C)c3n2)cc1 [Example 160, 1-(4-{1-[2-(dimethylamino)ethyl]-4-(8-oxa-3-azabicyclo[3.2.1]oct-3-yl)-1H-pyrazolo[3,4-d]pyrimidin-6-yl}phenyl)-3-ethylurea]",–,–,1800,280,–,3120,> 10000,13
"O=C(Nc1ccc(-c2nc(N3C[C@@H]4C[C@H]3CO4)c3cnn(CC(F)(F)F)c3n2)cc1)Nc1ccc(N2CCNCC2)cc1 [Example 393, 1-(4-{4-[(1S,4S)-2-oxa-5-azabicyclo[2.2.1]hept-5-yl]-1-(2,2,2-trifluoroethyl)-1H-pyrazolo[3,4-d]pyrimidin-6-yl}phenyl)-3-(4-piperazin-1-ylphenyl)urea]",330,3090,14,1,1.75,–,–,–
"O=C(Nc1ccc(-c2nc(N3CC4CCC(C3)O4)c3cnn(CCF)c3n2)cc1)Nc1ccc(N2CCOCC2)cc1 [Example 244, 1-{4-[1-(2-fluoroethyl)-4-(8-oxa-3-azabicyclo[3.2.1]oct-3-yl)-1H-pyrazolo[3,4-d]pyrimidin-6-yl]phenyl}-3-(4-morpholin-4-ylphenyl)urea]",–,–,7,1,–,739,> 10000,0.185
"COCC(COC)n1ncc2c(N3CC4CCC(C3)O4)nc(-c3ccc(NC(=O)OCCO)cc3)nc21 [Example 323, 2-hydroxyethyl (4-{1-[2-methoxy-1-(methoxymethyl)ethyl]-4-(8-oxa-3-azabicyclo[3.2.1]oct-3-yl)-1H-pyrazolo[3,4-d]pyrimidin-6-yl}phenyl)carbamate]",6620,> 10000,2000,470,16.5,–,–,–
"CC(C)(C)OC(=O)N1CCC(n2ncc3c(N4CC5CCC(C4)O5)nc(-c4ccc(NC(=O)NC5CC5)cc4)nc32)CC1 [Example 22, tert-butyl 4-[6-{4-[(cyclopropylcarbamoyl)amino]phenyl}-4-(8-oxa-3-azabicyclo[3.2.1]oct-3-yl)-1H-pyrazolo[3,4-d]pyrimidin-1-yl]piperidine-1-carboxylate]",–,–,150,27,–,3850,> 10000,0.56
"CCn1ncc2c(N3CC4CCC(C3)O4)nc(-c3ccc(NC(=O)NCCCNC)cc3)nc21 [Example 49, 1-{4-[1-ethyl-4-(8-oxa-3-azabicyclo[3.2.1]oct-3-yl)-1H-pyrazolo[3,4-d]pyrimidin-6-yl]phenyl}-3-[3-(methylamino)propyl]urea]",–,–,3000,1800,–,968,> 10000,14
"Cn1ncc2c(N3CC4CCC(C3)O4)nc(-c3cccc(O)c3)nc21 [Example 61, 3-[1-methyl-4-(8-oxa-3-azabicyclo[3.2.1]oct-3-yl)-1H-pyrazolo[3,4-d]pyrimidin-6-yl]phenol]",–,–,7600,1800,–,903,1840,90
"O=C(Nc1ccc(-c2nc(N3CC4CCC(C3)O4)c3cnn(C4CCC5(CCCO5)CC4)c3n2)cc1)NC1CC1 (single isomer, unassigned) [Example 316, 1-cyclopropyl-3-(4-{4-(8-oxa-3-azabicyclo[3.2.1]oct-3-yl)-1-[(5r,8r)-1-oxaspiro[4.5]dec-8-yl]-1H-pyrazolo[3,4-d]pyrimidin-6-yl}phenyl)urea]",4560,> 10000,160,7,0.495,–,–,–
"COC(=O)N1CCC(n2ncc3c(N4CC5CCC(C4)O5)nc(-c4ccc(NC(=O)NCCN(C)C)cc4)nc32)CC1 [Example 169, methyl 4-{6-[4-({[2-(dimethylamino)ethyl]carbamoyl}amino)phenyl]-4-(8-oxa-3-azabicyclo[3.2.1]oct-3-yl)-1H-pyrazolo[3,4-d]pyrimidin-1-yl}piperidine-1-carboxylate]",–,–,2200,500,–,422,5450,40.5
"CCn1ncc2c(N3CC4CCC(C3)O4)nc(-c3ccc(NC(=O)Nc4ccc(CCO)cc4)cc3)nc21 [Example 183, 1-{4-[1-ethyl-4-(8-oxa-3-azabicyclo[3.2.1]oct-3-yl)-1H-pyrazolo[3,4-d]pyrimidin-6-yl]phenyl}-3-[4-(2-hydroxyethyl)phenyl]urea]",–,–,< 1,< 1,–,68,1500,0.12
"COC(=O)N1CCC(n2ncc3c(N4CC5CCC(C4)O5)nc(-c4ccc(NC(=O)Nc5ccc(N6CCN(C)CC6)nc5)cc4)nc32)CC1 [Example 167, methyl 4-{6-[4-({[6-(4-methylpiperazin-1-yl)pyridin-3-yl]carbamoyl}amino)phenyl]-4-(8-oxa-3-azabicyclo[3.2.1]oct-3-yl)-1H-pyrazolo[3,4-d]pyrimidin-1-yl}piperidine-1-carboxylate]",–,–,4,< 1,–,234,1220,0.425
"CCOC(=O)N1CCC(n2ncc3c(N4CC5CCC(C4)O5)nc(-c4ccc(NC(=O)NC5CCN(C(=O)OC(C)(C)C)CC5)cc4)nc32)CC1 [Example 37, ethyl 4-{6-[4-({[1-(tert-butoxycarbonyl)piperidin-4-yl]carbamoyl}amino)phenyl]-4-(8-oxa-3-azabicyclo[3.2.1]oct-3-yl)-1H-pyrazolo[3,4-d]pyrimidin-1-yl}piperidine-1-carboxylate]",–,–,> 60000,1000,–,8620,7390,37
"CCNC(=O)Nc1ccc(-c2nc(N3CC4CCC(C3)O4)c3cnn(C(C)C)c3n2)cc1 [Example 140, 1-ethyl-3-{4-[1-isopropyl-4-(8-oxa-3-azabicyclo[3.2.1]oct-3-yl)-1H-pyrazolo[3,4-d]pyrimidin-6-yl]phenyl}urea]",–,–,32,1,–,740,5900,0.14
